Results published in patent US9708665B2, “Spatial biomarker of disease and detection of spatial organization of cellular receptors” (The Regents of the University of California, priority 2009, dated 2017).
Entries after “also recorded” stand apart in the source; their conditions may differ.

How the values were obtained:
MDA-MB-231 cells [1] = test: ROCK inhibition: EphA2-ephrin-A1 radial transport on ephrin-A1 functionalized supported bilayers; type: cell-based, human; settings: inhibitor 1 to 50 μM, normalized to untreated samples
Method: Radial Transport Analysis. Bright field microscopy was used to determine the area occupied by each cell. The corresponding areas in the fluorescence channel were then analyzed using the Radial Profile plugin from ImageJ, yielding a plot of normalized fluorescence intensities versus radial distance from the cell center. Plots were then normalized for cell size and averaged. Least squares analysis was then performed on the average normalized radial distribution using Origin 7.0 (OriginLab, Northampton, Mass.), and the slope of the calculated line was used as a score for propensity to radially transport ephrin-A1. ROCK Inhibition. Cells were detached from cell culture flasks using trypsin-EDTA and incubated at 37° C. for 2 hrs in media containing ROCK inhibitor Y-27632 (Sigma-Aldrich, Inc.) at concentrations ranging from 1-50 μM. […] Cells were cultured in drugged media for one hr on well plates containing Alexa Fluor 647-labeled ephrin-A1 functionalized supported bilayers. Cells were fixed, stained and imaged with epifluorescence microscopy as described above.

MDA-MB-231 cells [2] = test: Trypan blue staining and cell counting (cell viability) under ROCK inhibitor treatment; type: cell-based, human; settings: 2 hrs at 37° C., 1-50 μM
Method: ROCK Inhibition. Cells were detached from cell culture flasks using trypsin-EDTA and incubated at 37° C. for 2 hrs in media containing ROCK inhibitor Y-27632 (Sigma-Aldrich, Inc.) at concentrations ranging from 1-50 μM. […] Cells were cultured in drugged media for one hr on well plates containing Alexa Fluor 647-labeled ephrin-A1 functionalized supported bilayers. Cells were fixed, stained and imaged with epifluorescence microscopy as described above.

MDA-MB-231 cells [3] = settings: binary mixture with ephrin-A1, 1 hr after plating
Method: Surface Functionalization. After lipid bilayer deposition, substrates were incubated for 45 min with a 0.01% bovine serum albumin (BSA; Sigma-Aldrich, Inc.) solution to minimize non-specific protein adsorption. The supported membranes were then incubated with a 17 nM solution of streptavidin (Fisher Scientific, Pittsburgh, Pa.) for 45 minutes. For experiments that quantify protein surface density, streptavidin conjugated to Alexa Fluor 488 (Invitrogen Corp.) was substituted for the unlabeled protein. The supported membrane was then thoroughly rinsed and substrates were incubated for 45 min with a 50 nM solution of ephrin-A1 (R&D Systems, Minneapolis, Minn.), which had been biotinylated (Fisher Scientific) and conjugated to Alexa Fluor 594 or Alexa Fluor 647 (both from Invitrogen Corp.).
Optical Microscopy. We used Nikon Eclipse TE2000-E and TE300 inverted microscopes with mercury arc lamps for epifluorescence illumination and 12 V, 100 W halogen lamps for bright field illumination. Total internal reflection fluorescence (TIRF) illumination was provided using a krypton/argon ion laser for 647 nm excitation, and an argon ion laser (Stabilite 2018 and Model 177 respectively, both from Spectra-Physics, Mountain View, Calif.) for 488 nm excitation. […]

Molecule | Eph-ephrin radial transport (capacity to transport EphA2-ephrin-A1 complexes to the center of the cell-supported membrane junction) (MDA-MB-231 cells [1]) | cell viability (Trypan blue staining and cell counting) (MDA-MB-231 cells [2]) | EphA2 organization with increasing RGD peptide density (MDA-MB-231 cells [3]) | cell-supported membrane contact area (RICM) with increasing RGD peptide density (MDA-MB-231 cells [3])
C[C@@H](N)[C@H]1CC[C@H](C(=O)Nc2ccncc2)CC1 [Y-27632] | dose-dependent decrease; also recorded: dosage-dependent decrease | no adverse effects | – | –
[Arg-Gly-Asp-d-Phe-Lys(Biotin-PEG-PEG)] [cyclic RGD peptide] | – | – | no change in EphA2 organization | progressively larger
